Blank lines part the entries; values can stand above or below the compound they belong to.
Legend:
GGTase II [1] = biological target: T1, GGTase II (Homo sapiens, UniProt P53611+Q92696); settings: cited from earlier work
T1 sequence (Q92696 1-567): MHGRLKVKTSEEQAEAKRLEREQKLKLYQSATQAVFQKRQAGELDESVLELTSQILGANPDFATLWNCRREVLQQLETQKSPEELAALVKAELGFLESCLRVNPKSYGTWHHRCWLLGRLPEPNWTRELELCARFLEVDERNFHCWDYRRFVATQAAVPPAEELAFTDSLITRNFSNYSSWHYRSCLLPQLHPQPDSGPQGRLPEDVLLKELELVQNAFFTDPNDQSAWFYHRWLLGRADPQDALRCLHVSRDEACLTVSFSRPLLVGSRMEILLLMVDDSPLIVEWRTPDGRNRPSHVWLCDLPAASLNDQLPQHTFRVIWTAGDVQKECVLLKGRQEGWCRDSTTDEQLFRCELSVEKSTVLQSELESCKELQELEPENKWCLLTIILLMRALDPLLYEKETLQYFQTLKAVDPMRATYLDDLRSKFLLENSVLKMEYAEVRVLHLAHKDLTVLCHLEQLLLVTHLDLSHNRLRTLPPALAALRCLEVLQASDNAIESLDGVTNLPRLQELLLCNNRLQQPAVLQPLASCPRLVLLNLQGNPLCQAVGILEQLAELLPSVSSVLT
T1 sequence (P53611 1-331): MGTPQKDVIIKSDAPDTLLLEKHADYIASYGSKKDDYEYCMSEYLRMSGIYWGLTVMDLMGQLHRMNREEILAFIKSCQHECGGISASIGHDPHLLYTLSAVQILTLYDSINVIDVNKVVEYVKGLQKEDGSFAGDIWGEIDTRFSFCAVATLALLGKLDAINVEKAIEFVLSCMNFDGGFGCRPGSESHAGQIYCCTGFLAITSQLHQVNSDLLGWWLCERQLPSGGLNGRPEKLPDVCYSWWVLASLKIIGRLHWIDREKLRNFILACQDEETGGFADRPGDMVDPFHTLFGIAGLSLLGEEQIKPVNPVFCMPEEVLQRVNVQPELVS

RPMI-8226 cells [2] = test: Cellular protein prenylation assays; assay type: cell-based, human
myeloma cells = settings: cited from earlier work
GGTase I = GGTase I (Homo sapiens, UniProt P49354+P53609); test: GGTase I in vitro enzyme assay; assay type: biochemical
FTase = FTase (Homo sapiens, UniProt P49354+P49356); test: FTase in vitro enzyme assay; assay type: biochemical
GGTase II [3] = biological target: T1, GGTase II; test: GGTase II in vitro enzyme assay; assay type: biochemical
FDPS = biological target: T2, FDPS (Homo sapiens, UniProt P14324); test: FDPS in vitro enzyme assay; assay type: biochemical; settings: ratio of GGDPS and FDPS IC50
T2 sequence (P14324 1-419): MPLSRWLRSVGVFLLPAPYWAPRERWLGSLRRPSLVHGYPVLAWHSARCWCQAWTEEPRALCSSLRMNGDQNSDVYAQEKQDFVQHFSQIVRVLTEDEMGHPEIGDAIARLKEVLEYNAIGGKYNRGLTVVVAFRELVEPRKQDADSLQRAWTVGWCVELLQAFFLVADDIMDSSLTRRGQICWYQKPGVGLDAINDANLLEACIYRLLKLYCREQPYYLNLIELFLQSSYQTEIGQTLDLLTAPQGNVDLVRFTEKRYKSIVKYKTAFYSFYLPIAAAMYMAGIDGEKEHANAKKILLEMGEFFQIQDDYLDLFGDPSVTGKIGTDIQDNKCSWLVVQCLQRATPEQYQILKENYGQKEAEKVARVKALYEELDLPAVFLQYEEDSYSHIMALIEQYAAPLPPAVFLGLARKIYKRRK

RPMI-8226 cells [4] = settings: HMG-CoA reductase inhibitor, 10 μM in Figure 2; cited from earlier work
[5] = RPMI-8226 cells, 48 hours, immunoblot

Structure (SMILES): O=C(O)C(O)(Cc1cnc2ccccn12)P(=O)(O)O (single isomer, unassigned; (+)) [(+)-enantiomer of 3-IPEHPC]
- Activity relative to the (−)-enantiomer (GGTase II [1]; more active than (−)-enantiomer): ~ 60 fold

Structure (SMILES): O=P(O)(O)C(Cn1cnc2cc(F)c(F)cc21)P(=O)(O)O [Compound 19]
- Concentration for cellular activity relative to parent compound 17 (RPMI-8226 cells [2]; higher concentration than compound 17): 20 fold

Structure (SMILES): O=C(O)C(O)(Cc1cccnc1)P(=O)(O)O (centres unmarked) [Compound 3-PEHPC]
- Concentration required to yield cellular effects (myeloma cells): > 5 mM

- IC50 (GGTase I): > 1000 µM
- IC50 (FTase): > 1000 µM
Structure (SMILES): CC(Cn1cnc2ccccc21)(C(=O)O)P(=O)(O)O (centres unmarked) [Compound 14]

- IC50 (GGTase I): > 1000 µM
Structure (SMILES): O=C(O)C(Cn1cnc2ccccc21)P(=O)(O)O (centres unmarked) [Compound 13]
- Intracellular light chain levels (RPMI-8226 cells [2]; RPMI-8226 cells, 48 hours, ELISA): increase
- Membrane-bound Rab6 levels (RPMI-8226 cells [2]; RPMI-8226 cells, 48 hours, detergent fraction, immunoblot): decrease
- Disruption of H-Ras prenylation (representative farnesylated protein) (RPMI-8226 cells [2]; [5]): did not cause disruption
- Disruption of Rap1a prenylation (representative substrate for GGTase I) (RPMI-8226 cells [2]; [5]): did not cause disruption

- IC50 (GGTase I): > 1000 µM
- IC50 (FTase): > 1000 µM
Structure (SMILES): Cc1cc2ncn(CC(P(=O)(O)O)P(=O)(O)O)c2cc1C [Compound 20]
- Impairment of protein prenylation in cells (RPMI-8226 cells [2]; RPMI-8226 cells, 48 hours): no detectable impairment of protein prenylation

Structure (SMILES): O=C(O)C(O)(Cc1cnc2ccccn12)P(=O)(O)O (centres unmarked) [Compound 3-IPEHPC]
- Potency as GGTase II inhibitor relative to 3-PEHPC (GGTase II [1]; more potent than 3-PEHPC): 25 fold

- IC50 (GGTase I): > 1000 µM
- IC50 (GGTase II [3]): > 1000 µM
Structure (SMILES): O=P(O)(O)C(Cn1cnc2ccccc21)P(=O)(O)O [Compound 17]
- Impairment of protein prenylation in cells (RPMI-8226 cells [2]; RPMI-8226 cells, 48 hours): globally disrupts protein prenylation
- Impairment of protein prenylation in combination with lovastatin (RPMI-8226 cells [2]; co-incubation with lovastatin 0.5 μM, RPMI-8226 cells, 48 hours): enhanced the impairment of protein prenylation

- Selectivity for FDPS relative to GGDPS (FDPS): >100
- IC50 (GGTase I): > 1000 µM
- IC50 (FTase): > 1000 µM
- IC50 (GGTase II [3]): > 1000 µM
Structure (SMILES): CC(Cn1cnc2ccccc21)(P(=O)(O)O)P(=O)(O)O [Compound 18]
- Impairment of protein prenylation in cells (RPMI-8226 cells [2]; RPMI-8226 cells, 48 hours): no detectable impairment of protein prenylation

Structure (SMILES): CC[C@H](C)C(=O)O[C@H]1C[C@@H](C)C=C2C=C[C@H](C)[C@H](CC[C@@H]3C[C@@H](O)CC(=O)O3)[C@H]21 [Lovastatin, reference compound]
- Impairment of protein prenylation in cells (RPMI-8226 cells [2]; lovastatin alone at 0.5 μM, RPMI-8226 cells, 48 hours): only minimally impairs protein prenylation
- Disruption of prenylation (positive control) (RPMI-8226 cells [4]): disrupts all prenylation

- IC50 (GGTase II [3]): > 1000 µM
Structure (SMILES): O=C(O)C(Cn1cnc2cc(F)c(F)cc21)P(=O)(O)O (centres unmarked) [Compound 15]

- IC50 (GGTase I): > 1000 µM
- IC50 (FTase): > 1000 µM
- IC50 (GGTase II [3]): > 1000 µM
Structure (SMILES): Cc1cc2ncn(CC(C(=O)O)P(=O)(O)O)c2cc1C (centres unmarked) [Compound 16]

Source: publication PMC6911684 (Bioorganic & medicinal chemistry letters, 2019)
